Measured values published in patent US8461120B2, “Macrocyclic compounds pounds and methods of use thereof” (Synovo GmbH, priority 2004, dated 2013).

Tests used:
Format in all cases: cell-based
[1] = tested on: IFNg; assay: Suppression of pro-inflammatory responses in isolated cells: IFNg; conditions: for activity at 8 µM: read-out: IFNg (% control) at 8 μM
[2] = tested on: NO; assay: Suppression of pro-inflammatory responses in isolated cells: NO; conditions: for activity at 8 µM: read-out: NO (% control) at 8 μM; for Potency in NO suppression vs. Dexamethasone: relative to Dexamethasone
[3] = tested on: KC; assay: LPS-stimulated mouse whole blood, production of the chemotactic cytokine KC (bioplex); conditions: Neutrophil, 1.5 h; fresh mouse whole blood stimulated by LPS, incubated 90 minutes; read-out: EC50 of modulation of the neutrophil migration factor KC
Protocol: FIG. 2. is a graph showing the response of murine blood cells to varying concentrations of a compound of the invention (see Example 31) based on the production of the chemotactic cytokine “KC”. Fresh mouse whole blood was stimulated by LPS and incubated for 90 minutes. KC was quantified by bioplex.

Compound | activity at 8 µM [1] [%] | activity at 8 µM [2] [%] | Potency in NO suppression vs. Dexamethasone [2] | further results
C[C@@H]1C[C@H]2[C@@H]3CCC4=CC(=O)C=C[C@]4(C)[C@@]3(F)[C@@H](O)C[C@]2(C)[C@@]1(O)C(=O)CO [Dexamethasone, reference compound] | 4.3 | 3.4 |  | 
CC[C@H]1OC(=O)[C@H](C)[C@@H](O[C@H]2C[C@@](C)(OC)[C@@H](O)[C@H](C)O2)[C@H](C)[C@@H](O[C@@H]2O[C@H](C)CC(N(C)CC(O)CNCCCCN)[C@H]2O)[C@](C)(O)C[C@@H](C)CN(C)[C@H](C)[C@@H](O)[C@]1(C)O (stereo partly shown) [Example 29] |  |  | 0.6 | 
CCCCCCCCNCC(O)CN(C)C1C[C@@H](C)O[C@@H](O[C@@H]2[C@@H](C)[C@H](O[C@H]3C[C@@](C)(OC)[C@@H](O)[C@H](C)O3)[C@@H](C)C(=O)O[C@H](CC)[C@@](C)(O)[C@H](O)[C@@H](C)N(C)C[C@H](C)C[C@@]2(C)O)[C@@H]1O (stereo partly shown) [Example 31] | 4.4 | 4.7 |  | EC50 [3]: ~100 nM
CCCCCNCC(O)CN(C)C1C[C@@H](C)O[C@@H](O[C@@H]2[C@@H](C)[C@H](O[C@H]3C[C@@](C)(OC)[C@@H](O)[C@H](C)O3)[C@@H](C)C(=O)O[C@H](CC)[C@@](C)(O)[C@H](O)[C@@H](C)N(C)C[C@H](C)C[C@@]2(C)O)[C@@H]1O (stereo partly shown) [Example 32] | 3.7 | 6.8 |  | 
CCCCC(CC)CNCC(O)CN(C)C1C[C@@H](C)O[C@@H](O[C@@H]2[C@@H](C)[C@H](O[C@H]3C[C@@](C)(OC)[C@@H](O)[C@H](C)O3)[C@@H](C)C(=O)O[C@H](CC)[C@@](C)(O)[C@H](O)[C@@H](C)N(C)C[C@H](C)C[C@@]2(C)O)[C@@H]1O (stereo partly shown) [Example 33] | 3.8 | 3.2 |  | 
CC[C@H]1OC(=O)[C@H](C)[C@@H](O[C@H]2C[C@@](C)(OC)[C@@H](O)[C@H](C)O2)[C@H](C)[C@@H](O[C@@H]2O[C@H](C)CC(N(C)CC(O)CNCC(OC)OC)[C@H]2O)[C@](C)(O)C[C@@H](C)CN(C)[C@H](C)[C@@H](O)[C@]1(C)O (stereo partly shown) [Example 35] |  |  | 0.5 | 
CC[C@H]1OC(=O)[C@H](C)[C@@H](O[C@H]2C[C@@](C)(OC)[C@@H](O)[C@H](C)O2)[C@H](C)[C@@H](O[C@@H]2O[C@H](C)CC(N(C)CC(O)CNc3ncc(C)s3)[C@H]2O)[C@](C)(O)C[C@@H](C)CN(C)[C@H](C)[C@@H](O)[C@]1(C)O (stereo partly shown) [Example 41] |  |  | 0.5 | 
CC[C@H]1OC(=O)[C@H](C)[C@@H](O[C@H]2C[C@@](C)(OC)[C@@H](O)[C@H](C)O2)[C@H](C)[C@@H](O[C@@H]2O[C@H](C)CC(N(C)CC(O)CNc3cc(C)ccn3)[C@H]2O)[C@](C)(O)C[C@@H](C)CN(C)[C@H](C)[C@@H](O)[C@]1(C)O (stereo partly shown) [Example 42] |  |  | 0.8 | 
CC[C@H]1OC(=O)[C@H](C)[C@@H](O[C@H]2C[C@@](C)(OC)[C@@H](O)[C@H](C)O2)[C@H](C)[C@@H](O[C@@H]2O[C@H](C)CC(N(C)CC(O)CN3CCC(O)CC3)[C@H]2O)[C@](C)(O)C[C@@H](C)CN(C)[C@H](C)[C@@H](O)[C@]1(C)O (stereo partly shown) [Example 47] |  |  | 0.5 | 
CCCCN(CCCC)CCCNCC(O)CN(C)C1C[C@@H](C)O[C@@H](O[C@@H]2[C@@H](C)[C@H](O[C@H]3C[C@@](C)(OC)[C@@H](O)[C@H](C)O3)[C@@H](C)C(=O)O[C@H](CC)[C@@](C)(O)[C@H](O)[C@@H](C)N(C)C[C@H](C)C[C@@]2(C)O)[C@@H]1O (stereo partly shown) [Example 49] | 4.3 | 48.2 |  | 
CCCN(CCO)CC(O)CN(C)C1C[C@@H](C)O[C@@H](O[C@@H]2[C@@H](C)[C@H](O[C@H]3C[C@@](C)(OC)[C@@H](O)[C@H](C)O3)[C@@H](C)C(=O)O[C@H](CC)[C@@](C)(O)[C@H](O)[C@@H](C)N(C)C[C@H](C)C[C@@]2(C)O)[C@@H]1O (stereo partly shown) [Example 50] | 4 | 3.9 |  | 
CC[C@H]1OC(=O)[C@H](C)[C@@H](O[C@H]2C[C@@](C)(OC)[C@@H](O)[C@H](C)O2)[C@H](C)[C@@H](O[C@@H]2O[C@H](C)CC(N(C)CC(O)CN3CCN(C=O)CC3)[C@H]2O)[C@](C)(O)C[C@@H](C)CN(C)[C@H](C)[C@@H](O)[C@]1(C)O (stereo partly shown) [Example 56] |  |  | 0.6 | 
CC[C@H]1OC(=O)[C@H](C)[C@@H](O[C@H]2C[C@@](C)(OC)[C@@H](O)[C@H](C)O2)[C@H](C)[C@@H](O[C@@H]2O[C@H](C)CC(N(C)CC(O)COc3cccc(O)c3)[C@H]2O)[C@](C)(O)C[C@@H](C)CN(C)[C@H](C)[C@@H](O)[C@]1(C)O (stereo partly shown) [Example 59] | 96.9 | 99.2 |  | 
CC[C@H]1OC(=O)[C@H](C)[C@@H](O[C@H]2C[C@@](C)(OC)[C@@H](O)[C@H](C)O2)[C@H](C)[C@@H](O[C@@H]2O[C@H](C)CC(N(C)CC(O)COc3ccc(OC)cc3)[C@H]2O)[C@](C)(O)C[C@@H](C)CN(C)[C@H](C)[C@@H](O)[C@]1(C)O (stereo partly shown) [Example 60] | 5.7 | 33.7 |  | 
CC[C@H]1OC(=O)[C@H](C)[C@@H](O[C@H]2C[C@@](C)(OC)[C@@H](O)[C@H](C)O2)[C@H](C)[C@@H](O[C@@H]2O[C@H](C)CC(N(C)CC(O)COc3ccc(B(O)O)cc3)[C@H]2O)[C@](C)(O)C[C@@H](C)CN(C)[C@H](C)[C@@H](O)[C@]1(C)O (stereo partly shown) [Example 61] | 15.6 | 74.2 |  | 
CC[C@H]1OC(=O)[C@H](C)[C@@H](O[C@H]2C[C@@](C)(OC)[C@@H](O)[C@H](C)O2)[C@H](C)[C@@H](O[C@@H]2O[C@H](C)CC(N(C)CC(O)COc3ccc(C(=O)OC)cc3)[C@H]2O)[C@](C)(O)C[C@@H](C)CN(C)[C@H](C)[C@@H](O)[C@]1(C)O (stereo partly shown) [Example 62] | 5.3 | 63.4 |  | 
CC[C@H]1OC(=O)[C@H](C)[C@@H](O[C@H]2C[C@@](C)(OC)[C@@H](O)[C@H](C)O2)[C@H](C)[C@@H](O[C@@H]2O[C@H](C)CC(N(C)CC(O)COC(=O)CNC(=O)OC(C)(C)C)[C@H]2O)[C@](C)(O)C[C@@H](C)CN(C)[C@H](C)[C@@H](O)[C@]1(C)O (stereo partly shown) [Example 63] | 4.4 | 3.9 |  | 
CC[C@H]1OC(=O)[C@H](C)[C@@H](O[C@H]2C[C@@](C)(OC)[C@@H](O)[C@H](C)O2)[C@H](C)[C@@H](O[C@@H]2O[C@H](C)CC(N(C)CC(O)COC(=O)c3nccc4ccccc34)[C@H]2O)[C@](C)(O)C[C@@H](C)CN(C)[C@H](C)[C@@H](O)[C@]1(C)O (stereo partly shown) [Example 65] | 30.9 | 77.6 |  | 
CCC1OC(=O)C(C)C(OC2CC(C)(OC)C(O)C(C)O2)C(C)C(OC2OC(C)CC(N(C)CC3CO3)C2O)C(C)(O)CC(C)C(=O)C(C)C(O)C1(C)O (stereo not shown) [Example 67, 3′-N-demethyl-3′-N-(oxiranylmethyl)erythromycin] |  |  |  | IFNg (% control) at 8 μM [1]: 6.0 % control; NO (% control) at 8 μM [2]: 70.0 % control
CC[C@H]1OC(=O)[C@H](C)[C@@H](OC2C[C@@](C)(OC)[C@@H](O)[C@H](C)O2)C[C@@H](OC2O[C@H](C)C[C@H](N(C)CC(O)CNc3ncc(C)s3)[C@H]2O)[C@](C)(O)C[C@@H](C)C(=O)[C@H](C)[C@@H](O)[C@]1(C)O (stereo partly shown) [Example 68] | 4.3 | 2.9 |  | 
CC[C@H]1OC(=O)[C@H](C)C2(O)O[C@@](C)(C[C@@H](C)CN(C)[C@H](C)[C@@H](O)[C@]1(C)O)[C@H](O[C@@H]1O[C@H](C)CC(N(C)CC(O)COC(=O)c3cnc4ccccc4c3)C1O)[C@H]2C (stereo partly shown) [Example 75] | 88.8 | 96.8 |  | 
CC[C@H]1OC(=O)[C@H](C)[C@@H](OC2CC(C)(OC)C(O)C(C)O2)[C@H](C)[C@@H](OC2OC(C)CC(NC)C2O)C(C)(O)C[C@@H](C)C(=O)[C@H](C)[C@@H](O)C1(C)O (stereo partly shown) [desmethyl erythromycin, reference compound] |  |  |  | IFNg (% control) at 8 μM [1]: 6.3 % control; NO (% control) at 8 μM [2]: 37.1 % control
descladinosyltetraacetal azithromycin |  |  | 0.6 | 
